Data from ChEMBL document CHEMBL1212696, “Multienzyme docking in hybrid megasynthetases” (Nat Chem Biol, 2008).

Columns and labels:
[1] = Binding affinity to wild type Angiococcus disciformis PKS/NRPS expressed in Escherichia coli BL21 (DE3) by surface plasmon resonance assay
[2] = Binding affinity to wild type Angiococcus disciformis PKS/NRPS R20A/R29A mutant expressed in Escherichia coli BL21 (DE3) by surface plasmon resonance assay
[3] = Binding affinity to wild type Angiococcus disciformis PKS/NRPS expressed in Escherichia coli BL21 (DE3) by isothermal titration calorimetry
[4] = Binding affinity to wild type Angiococcus disciformis PKS/NRPS R29A mutant expressed in Escherichia coli BL21 (DE3) by surface plasmon resonance assay
[5] = Binding affinity to wild type Angiococcus disciformis PKS/NRPS R27A/R29A mutant expressed in Escherichia coli BL21 (DE3) by surface plasmon resonance assay
[6] = Binding affinity to wild type Angiococcus disciformis PKS/NRPS R20A mutant expressed in Escherichia coli BL21 (DE3) by surface plasmon resonance assay
[7] = Binding affinity to wild type Angiococcus disciformis PKS/NRPS R20A/R27A mutant expressed in Escherichia coli BL21 (DE3) by surface plasmon resonance assay
[8] = Binding affinity to wild type Angiococcus disciformis PKS/NRPS R27A mutant expressed in Escherichia coli BL21 (DE3) by surface plasmon resonance assay

`CCCC(=O)OCN(C(=O)[C@@H](NC(=O)[C@H]1CCCCN1C)[C@@H](C)CC)[C@H](C[C@@H](OC(C)=O)c1nc(C(=O)N[C@@H](Cc2ccc(O)cc2)C[C@H](C)C(=O)O)cs1)C(C)C` [TUBULYSIN B] gave a Kd [1] of 46 µM, a Kd [2] of 596 µM and a Kd [3] of 47 µM. It also gave a Kd [4] of 453 µM, a Kd [5] of 282 µM and a Kd [6] of 59 µM. It also gave a Kd [7] of 114 µM and a Kd [8] of 121 µM.
